# In patent US11986512B2, “Compositions and methods for cancer therapy” (Thetis Pharmaceuticals LLC, priority 2021, dated 2024):
# Assays:
# LLC cells = test: Metastatic LLC resection model, perioperative (neo-adjuvant) treatment; type: in vivo, C57BL/6J male mice; conditions: 300 ug/kg, SC, Q6D, first dose 2 hours prior to surgery
# Method: To investigate the efficacy of LTD dosing of bis RvE1 Mg-di-lysinate as neo-adjuvant therapy, a study was conducted in the metastatic LLC resection model with treatment initiated in the perioperative window. A total of fifteen (15) C57BL/6J male mice were injected subcutaneously with 1×10e6 living LLC cells. Once tumors reached approximately 1200-1500 mme3 in size, the mice were randomized (n=4-8 per group) to treatment with vehicle (SC, Q6D), bis RvE1 Mg-di-lysinate (300 ug/kg, SC, Q6D), or cisplatin (5 mg/kg, i.p, Q6D), followed by surgical resection of the tumors. The mice in the vehicle and cisplatin groups received an initial dose twenty-four (24) hours prior to surgery, and the mice treated with bis RvE1 Mg-di-lysinate received an initial dose two (2) hours prior to surgery. All mice were sacrificed on day 19 following the death of three mice in the vehicle control group on day 18.
# Panc2-H7 cells = test: Panc2-H7 model of pancreatic cancer, with and without anti-PD1; type: in vivo, C57BL/6J male mice
# Method: (§1) A representative compound of Formula IV, RvE1 magnesium dilysinate, was tested for efficacy in several mouse models of cancer, including the Panc2-H7 model of pancreatic cancer, the Lewis lung carcinoma (LLC) model, the MC38 model of colorectal cancer, and the B16F10 model of melanoma. These models are well established, highly tumorigenic syngeneic models in which murine cancer cell lines are injected subcutaneously (SC) into the dorsum of C57BL/6J mice. If left untreated, these tumors grow rapidly and lead to death or euthanasia, per protocol. As detailed below in Examples 1-9 and the accompanying figures, bis RvE1 Mg-di-lysinate (Compound 1) was unexpectedly effective as an anti-cancer agent in each of these model systems when administered in a less than daily (LTD) dosing regimen. […] Without being bound by any theory, the surprising efficacy of LTD dosing of resolvins in the cancer model systems described here may be the result of durable effects on the tumor microenvironment including changes in immune cell phenotype, vascularization, stromal phenotype, and antigen presentation, as well as durable effects on the T-cell compartment such as T-cell priming and increased tumor-infiltrating lymphocytes.
# Over the last two decades, research on checkpoint inhibitors, including anti-PD(L)1 and anti-CTLA4, has focused on T-cells as a major therapeutic target. Waldman et al., Nat Rev Immunol. 2020; 20(11):651-668. In general, the response to treatment with immune checkpoint inhibitors requires the presence of CD4+ and CD8+ T cells in the tumor microenvironment. Li et al., Biochim Biophys Acta Rev Cancer. 2020; 1874(2):188439. […] Chiurchiu et al., Sci. Transl. Med. 2016; 8:353ra111; Mizraji et al., Front Immunol. 2018; 9:785; Oner et al., Front Immunol. 2021; 12:637983. In addition, resolvins can enhance the de novo generation and function of immunosuppressive T regulatory cells, which are associated with cancer progression and resistance to immune checkpoint inhibitors. Alvarez et al., Front Immunol. 2021; 12:664756; Togashi et al., Nat Rev Clin Oncol 2019; 16, 356-371. […]
# MC-38 cells = test: MC38 model of colorectal cancer, subcutaneous tumors; type: in vivo, C57BL/6J male mice; conditions: 300 ug/kg, SC, single agent, P<0.05 vs placebo
# Method: as §1, with “lymphocytes. […]” for “lymphocytes.”
# subcutaneous KPC tumors = test: RNAseq cell enrichment analysis of subcutaneous KPC tumors; type: in vivo, mice; conditions: Q6D treatment, sacrificed on Day 26, compared to placebo
# Method: RNAseq analysis was performed on tumor samples from mice with subcutaneous KPC tumors sacrificed on Day 26 following treatment (Q6D) with bis RvE1 Mg-di-lysinate (Compound 1) compared to placebo. […] Darker color indicates increased gene expression, for various immune cells and other cells, as listed across the top of the heatmap. […] Namely, these unexpected results may be due to durable effects on the tumor microenvironment including changes in immune cell phenotype and the T-cell compartment such as T-cell priming and increased tumor-infiltrating lymphocytes.
smiles,measurement,setting,value
CC[C@@H](O)/C=C/C=C\C[C@@H](O)/C=C/C=C/C=C\[C@@H](O)CCCC(=O)O [bis RvE1 Mg-di-lysinate],number of lung metastases,"LLC cells; compared to vehicle control and cisplatin, p<0.05",significantly reduced the number of lung metastases
same,number of mice with metastasis in the axillary or inguinal lymph nodes,"LLC cells; compared to vehicle or cisplatin, p<0.01",significantly reduced the number of mice with metastasis in the axillary or inguinal lymph nodes
same,tumor growth,"Panc2-H7 cells; double combination: bis RvE1 Mg-di-lysinate 30 ug/kg SC plus anti-PD1 8 mg/kg IP Q3D, p<0.001 vs placebo and monotherapy groups",significantly inhibited tumor growth relative to control
same,"anti-cancer effect (tumor volume, Day 15 vs Day 0)","Panc2-H7 cells; monotherapy, 30 ug/kg, subcutaneous injection",did not have a significant anti-cancer effect
same,tumor growth,"Panc2-H7 cells; triple combination of bis RvE1 Mg-di-lysinate, anti-PD1 and gemcitabine",significantly inhibited tumor growth relative to control
same,tumor volume (Day 15 vs Day 0),MC-38 cells; Q3D,effective as a single agent
same,tumor volume (Day 15 vs Day 0),MC-38 cells; QD,effective as a single agent
same,immune cell marker gene expression in tumors (RNAseq heatmap),subcutaneous KPC tumors,"increase in markers of monocytes and DC cell subset (cDCs, pDCs, and iDCs) and markers of NK, CD8+ T cells, Th1 cells, and memory T cells (CD8+ and CD4+)"
